“Also recorded” adds a separate entry of the source.
What was measured:
[1] = tested on: Pro-collagen 1A1 and TIMP-1; test: LAMPS secretion of pro-fibrotic markers (ELISA); format: cell-based, human; details: for Effect on secreted pro-fibrotic markers / fibrosis: LAMPS NAFLD/MAFLD model, summary statement; for Decrease in secretion of the pro-fibrotic marker Pro-collagen 1a1: 30 μM PGZ vs vehicle, decrease not statistically significant; for Decrease in secretion of the pro-fibrotic marker Pro-Col 1a1: 10 μM TGZ vs vehicle, decrease is not significant
Description: (§1) LAMPS model assembly and maintenance. […] The experimental setup workflow is described in the Supplement.

[2] = tested on: LAMPS models; test: LAMPS cytotoxicity (lactate dehydrogenase secretion); details: for Lactate dehydrogenase curves: 10-day time course, vs vehicle control, 10 μM OCA, 30 μM PGZ, 10 μM TGZ
Method: LAMPS model assembly and maintenance. LAMPS studies were carried out as previously described (Vernetti, Senutovitch et al. 2016, Lee-Montiel, George et al. 2017, Miedel, Gavlock et al. 2019, Mohammed 2021) with modification to include the use of human primary liver sinusoidal endothelial cells (LSECs). A single chamber commercial microfluidic device (HAR-V single channel device, SCC-001, Nortis, Inc. Seattle, WA) was used for LAMPS studies. For all steps involving injection of media and/or cell suspensions into LAMPS devices, 100-150 μl per device was used to ensure complete filling of fluidic pathways, chamber and bubble traps. The percentages of hepatocytes, THP-1, LSEC, and LX-2 cells are consistent with the scaling used in our previously published models (Vernetti, Senutovitch et al. 2016, Lee-Montiel, George et al. 2017, Miedel, Gavlock et al. 2019, Mohammed 2021). For the studies described here, LAMPS models were set up and maintained for 10 days under flow.
Secretome measurements. Efflux media from LAMPS devices was collected on days 2,4,6,8, and 10 to measure albumin, blood urea nitrogen, and lactate dehydrogenase. […] The CytoTox 96 for lactate dehydrogenase (LDH) and the urea nitrogen test were purchased from Promega (Madison, WI) and Stanbio Laboratory (Boerne, TX), respectively. […] All efflux measurements were carried out according to the manufacturer's protocol and obtained as described previously (Vernetti, Senutovitch et al. 2016, Lee-Montiel, George et al. 2017, Li, George et al. 2018, Miedel, Gavlock et al. 2019).
LAMPS models were maintained for 10 days in MAFLD disease media containing either the indicated concentration of drug or DMSO vehicle control. We determined drug concentrations to test in LAMPS models guided by the CMap database and by cytotoxicity testing in primary hepatocytes (Table S8). […] We examined a panel of metrics to monitor disease-specific phenotypes including model functionality (albumin and blood urea nitrogen production) and cytotoxicity (lactate dehydrogenase secretion), hepatocellular steatosis (LipidTOX Lipid Stain from ThermoFisher Scientific labeling), stellate cell activation (α-smooth muscle actin staining), and the production of a panel of pro-inflammatory cytokines and fibrotic markers (Pro-collagen 1A1 and TIMP-1) (Mohammed et. al, 2021).

[3] = tested on: LAMPS models; test: LAMPS model functionality (albumin and blood urea nitrogen secretion); format: cell-based, human; details: 10-day time course, vs vehicle control, 10 μM OCA, 30 μM PGZ; for Albumin curves / Blood urea nitrogen curves: NAFLD disease media, 10 μM TGZ, Vorinostat 1.7 or 5 μM, AS601245 1 or 3 μM, pioglitazone + vorinostat combination
Description: (§2) LAMPS cell sources and cell culture. A single lot of selected cryopreserved primary human hepatocytes (lot #Hu1960) with >90% viability and re-plating efficiency post-thaw were purchased from ThermoFisher. A single lot of selected cryopreserved primary human liver sinusoidal endothelial cells (LSEC; lot #: HL160019) were purchased from LifeNet Health (formerly Samsara Sciences; Virginia Beach, VA.). The human monoblast cell line, THP-1, used to generate Kupffer cells, was purchased from ATCC (Rockville, MD). LX-2 human stellate cells were acquired from Sigma Millipore (Billerica, MA). The LX-2 cell is an immortalized human hepatic stellate cell that constitutively expresses key receptors regulating hepatic fibrosis, and proliferates in response to PDGF, a prominent mitogen contributing to liver fibrosis (Bonner 2004, Xu, Hui et al. 2005).
Primary human hepatocytes were thawed following the manufacturer's recommendations using Cryopreserved Hepatocyte Recovery Medium (CHRM; ThermoFisher) and were initially cultured in hepatocyte plating media (HPM) containing Williams E medium (11.5 mM glucose) supplemented with 5% fetal bovine serum, […] penicillin-streptomycin and 2 mM L-glutamine. For perfusion in LAMPS models, cells were maintained in normal fasting (NF), early metabolic syndrome (EMS), or late metabolic syndrome (LMS) media. The description of components of these media types is detailed in the Metabolic Syndrome Media section below. LSECs were thawed and expanded in endothelial cell basal medium-2 (EBM-2) supplemented with the endothelial growth medium-2 (EGM-2) supplement pack (Lonza; Alpharetta, GA; #CC-4176). THP-1 cells were cultured in suspension in RPMI-1640 medium (ThermoFisher) supplemented with 10% fetal bovine serum (FBS; ThermoFisher), 100 μg/mL penicillin streptomycin (ThermoFisher), and 2 mM L-glutamine (ThermoFisher). THP-1 cells were differentiated into mature macrophages by treatment with 200 ng/mL phorbol myristate acetate (Sigma Aldrich) for 48 h. Differentiated THP-1 monocytes release human tumor necrosis factor alpha (TNF-α) and interleukin-6 (IL-6) in response to LPS treatment, a condition reported to induce the immune mediated liver toxic response in in vitro models (Jang, Choi et al. 2006, Kostadinova, Boess et al. 2013). LX-2 cells were cultured in Dulbecco's Modified Eagle Medium (DMEM; ThermoFisher) supplemented with 2% FBS and 100 μg/mL penicillin streptomycin.
Metabolic syndrome media. We developed medias that were designed to create disease progression from Normal Fasting (NF) to early metabolic syndrome (EMS or NAFLD) and late metabolic syndrome (LMS or T2D) over a two-week period in the LAMPS platform (Mohammed 2021). For the studies described here, we used both NF and EMS media formulations. […] We then adjusted these components to reflect the pathophysiological conditions as described below (Alford, Bloodm et al. 1977, Kuhl 1977, Kim, Kim et al. 2000, Chitturi, Abeygunasekera et al. 2002, de Almeida, Cortez-Pinto et al. 2002, Valencia, Marin et al. 2002, Edgerton, Ramnanan et al. 2009, Winnick, An et al. 2009).
Early Metabolic Syndrome (EMS) Media: Early metabolic syndrome (EMS) medium was derived from the NF media formulation with the following modifications: 11.5 mM glucose, 10 nM insulin, […] glucagon, 200 μM sodium oleate and 100 μM palmitic acid (Sigma).
as §1

[4] = tested on: LAMPS models; test: LAMPS hepatocellular steatosis (LipidTOX labeling); format: cell-based, human; details: for Effect on steatosis: LAMPS NAFLD/MAFLD model, summary statement; for Hepatocellular steatosis / lipid accumulation (LipidTOX intensity): NAFLD disease media, day 10, vs vehicle control, 10 μM TGZ, Vorinostat 1.7 or 5 μM, AS601245 1 or 3 μM, pioglitazone + vorinostat combination
Method: as §1
Steatosis measurements. Steatosis measurements were performed using HCS LipidTOX Deep Red Neutral Lipid Stain (ThermoFisher) after completion of the experimental time course (Day 10) in LAMPS models as previously described (Lee-Montiel, George et al. 2017) and are outlined in detail in the Supplemental Methods section.

[5] = tested on: LX-2 human stellate cells; test: LAMPS stellate cell activation (α-smooth muscle actin staining); format: cell-based; details: for Effect on stellate cell activation: LAMPS NAFLD/MAFLD model, summary statement; for Stellate cell activation (α-SMA intensity): LAMPS, 10 μM OCA, 30 μM PGZ
Description: as §2, §1
Stellate cell activation. Staining for LX-2 cell expression of α-smooth muscle actin (α-SMA) was performed after completion of the experimental time course (Day 10) in LAMPS models as previously described (Vernetti, Senutovitch et al. 2016, Li, George et al. 2018) and are outlined in detail in the Supplemental Methods section.

[6] = observational trial of adult males [Vega, G. L., et al. 2008]; cited from earlier work
[7] = tested on: TNF-α, IL-6, IL-8, IL-1α and MCP-1; test: LAMPS production of pro-inflammatory cytokines; format: cell-based, human; details: for Inflammatory cytokine production: LAMPS
Description: as §1

[8] = LAMPS, EMS media, 10 days, 10 μM OCA
[9] = LAMPS, NAFLD disease media, 10 days, 10 μM OCA, 30 μM PGZ
[10] = NAFLD disease media, day 10, vs vehicle control, 10 μM TGZ, Vorinostat 1.7 or 5 μM, pioglitazone + vorinostat combination
[11] = LAMPS, NAFLD disease media, 10 days, vs vehicle, 10 μM OCA, 30 μM PGZ, 10 μM TGZ, Vorinostat 1.7 or 5 μM, pioglitazone + vorinostat combination
[12] = NAFLD disease media, day 10, vs vehicle control, Vorinostat 1.7 or 5 μM, AS601245 1 or 3 μM, pioglitazone + vorinostat combination
[13] = EMS media, vorinostat 1.7 or 5 μM, pioglitazone 30 μM + vorinostat 1.7 or 5 μM
[14] = EMS media, day 10, vs vehicle, vorinostat 1.7 or 5 μM, pioglitazone 30 μM + vorinostat 1.7 or 5 μM
[15] = LAMPS, EMS media, 10 days, vs vehicle, 10 μM OCA, 30 μM PGZ, vorinostat 1.7 or 5 μM, pioglitazone 30 μM + vorinostat 1.7 or 5 μM

Structure (SMILES) | Effect on secreted pro-fibrotic markers / fibrosis [1] | Decrease in secretion of the pro-fibrotic marker Pro-collagen 1a1 [1, 8] [%] | Decrease in secretion of the pro-fibrotic marker Pro-Col 1a1 [1, 9] [%] | Lactate dehydrogenase curves ([2]; NAFLD disease media) | Albumin curves [3] | Blood urea nitrogen curves [3] | Effect on steatosis [4] | Hepatocellular steatosis / lipid accumulation (LipidTOX intensity) ([4]; LAMPS, 10 μM OCA, 30 μM PGZ) | Effect on stellate cell activation [5] | Stellate cell activation (α-SMA intensity) [5, 10] | Secreted levels / production of TIMP-1 [1, 11] | Inflammatory cytokine production [7, 12] | other results
CCc1ccc(CCOc2ccc(CC3SC(=O)NC3=O)cc2)nc1 (stereo not shown) [PGZ, pioglitazone] | no significant effect | ~20 | ~20 | no significant differences | – | – | – | – | – | – | – | – | –
Cc1c(C)c2c(c(C)c1O)CCC(C)(COc1ccc(CC3SC(=O)NC3=O)cc1)O2 (stereo not shown) [TGZ, troglitazone] | reduced steatosis but not fibrosis markers; also recorded: no significant effect | – | ~20 | no significant differences | no significant differences | no significant differences | reduced | significant decrease | reduced | significant decrease | no significant change | – | –
C[C@]12COC(=O)C[C@@H]1CC[C@@H]1[C@@H]2CC[C@@]2(C)[C@H]1CC[C@]2(C)O [oxandrolone] | – | – | – | – | – | – | – | – | – | – | – | – | Hepatic ketogenesis [6]: promoted hepatic ketogenesis
N#CC(c1ccnc(NCCc2cccnc2)n1)c1nc2ccccc2s1 (stereo not shown) [AS601245] | – | – | – | – | no significant differences | no significant differences | – | no effect | – | – | – | dose-dependent increase | –
CC[C@H]1[C@@H](O)[C@@H]2[C@H](CC[C@]3(C)[C@@H]([C@H](C)CCC(=O)O)CC[C@@H]23)[C@@]2(C)CC[C@@H](O)C[C@@H]12 [OCA, obeticholic acid] | no significant effect | ~20 | ~20 | no significant differences | – | – | – | – | – | – | – | – | –
O=C(CCCCCCC(=O)Nc1ccccc1)NO [Vorinostat, suberoylanilide hydroxamic acid] | robustly mitigated; also recorded: robustly reduced; also recorded: significant inhibition | – | – | – | no significant differences | no significant differences | without an impact; also recorded: without significant amelioration; also recorded: without an appreciable effect | no effect | robustly reduced | significant decrease | significant decrease | significant decrease | Albumin secretion profiles [3, 13]: no significant differences; Blood urea nitrogen secretion profiles [3, 13]: no significant differences; Steatosis / lipid accumulation (LipidTOX intensity) ([4]; LAMPS, EMS media, day 10, vs vehicle, 10 μM OCA, 30 μM PGZ, vorinostat 1.7 or 5 μM, pioglitazone 30 μM + vorinostat 1.7 or 5 μM): no significant effect; Stellate cell activation (α-SMA intensity) [5, 14]: significant decrease; Secreted levels / production of TIMP-1 [1, 15]: significant decrease; Secreted levels / production of the pro-fibrotic marker Pro-Col 1a1 [1, 15]: significant decrease; Production of the pro-fibrotic marker pro-collagen 1a1 ([1]; LAMPS, NAFLD disease media, day 10, vs vehicle control, Vorinostat 1.7 or 5 μM, pioglitazone + vorinostat combination): significant decrease; Effect on inflammatory markers / inflammation ([7]; LAMPS NAFLD/MAFLD model, summary statement): robustly mitigated; also recorded: robustly reduced; also recorded: significant inhibition; Inflammatory cytokine production [7, 14]: significant decrease; LDH secretion ([2]; EMS media, days 8 and 10, 5 μM vorinostat vs vehicle control): significant decrease; LDH secretion ([2]; NAFLD disease media, days 8 and 10, 5 μM Vorinostat vs vehicle control): significant decrease
